Assay results from patent publication US20260226037A1, “MICROTUBULE TARGETING AGENTS” (ARIEL SCIENTIFIC INNOVATIONS LTD., priority 2022, published 2026).
pIC50: −log10 of the molar value. “Also recorded” adds a separate entry of the source.

Key:
[1] = test system: MESA/SA and MES-SA/DX5, NALM6 and NALM6/ADR, RPMI8226 and RPMI-DO40 cells; assay: Annexin / propidium iodide staining (apoptosis, necrosis); assay type: cell-based; conditions: 72 hours, graded concentrations
[2] = test system: RPMI-MR20 cells; assay: XTT cytotoxicity, RPMI-MR20; assay type: cell-based
Method in brief: (§1)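 Cells are exposed to compound and viability is scored by XTT.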

[3] = test system: MES-SA/DX5 cells; assay: XTT cytotoxicity, MES-SA/DX5; assay type: cell-based
Method in brief: as §1

[4] = test system: MCF7-VP cells; assay: XTT cytotoxicity, MCF7-VP; assay type: cell-based
Method in brief: as §1

[5] = test system: HUVEC cells; assay: Disruption of pre-formed HUVEC capillary-like tubes; assay type: cell-based, human; conditions: tubes formed 4 hours, then 2 hours exposure
Method: The analysis of the anti-vascular effect was performed by seeding HUVEC cells on Matrigel matrix, and incubated them until formation of capillary-like tubes, reminiscent of newly formed vessels after 4 hours.

[6] = test system: acute lymphoblastic leukemia cells; assay: XTT cytotoxicity, acute lymphoblastic leukemia cells; assay type: cell-based; conditions: lowest of the range
Method: (§2) The cytotoxic activity of the novel family was evaluated against various tumor cells, including myeloma cells, acute lymphoblastic leukemia cells, acute monocytic leukemia cells, chronic myelogenous leukemia cells, pancreatic cancer cells, breast cancer cells, uterine sarcoma cells, cervix adenocarcinoma cells, ovary cancer cells, melanoma cells, osteosarcoma cells, prostate cancer cells, lung cancer cells, neuroblastoma cells and colorectal adenocarcinoma cells by XTT assay.

[7] = test system: metastatic breast adenocarcinoma cells; assay: XTT cytotoxicity, metastatic breast adenocarcinoma cells; assay type: cell-based; conditions: highest of the range
Method: as §2

[8] = test system: A2780ADR cells; assay: XTT cytotoxicity, A2780ADR; assay type: cell-based
Method: as §2

[9] = test system: MM1.S cells; assay: XTT cytotoxicity, MM1.S; assay type: cell-based; conditions: Homo sapiens, multiple myeloma, non-resistant, read-out: IC50
Method in brief: as §1

[10] = test system: RPMI8226 cells; assay: Cell cycle distribution by flow cytometry; assay type: cell-based
Method: Cell cycle arrest is a shared consequence of MTAs treatment. The effects of cell cycle distribution were determined in RPMI8226 cells treated for 6 and 18 hours with a range of concentrations of the molecules. The cells were stained with propidium iodide and cell cycle distribution was measured using a cytoFLEX flow cytometer.

[11] = test system: MM1.R cells; assay: XTT cytotoxicity, MM1.R; assay type: cell-based; conditions: MM.1R; MM1.R, multiple myeloma, dexamethasone resistant; read-out: IC50
Method in brief: as §1

[12] = test system: NCI-H69 cells; assay: XTT cytotoxicity, NCI-H69; assay type: cell-based; conditions: Homo sapiens; NCI-H69, small cell lung carcinoma, non-resistant
Method: as §2

[13] = test system: NCI-H69 VCR/R cells; assay: XTT cytotoxicity, NCI-H69 VCR/R; assay type: cell-based
Method: as §2

[14] = test system: RPMI-DOX40 cells; assay: XTT cytotoxicity, RPMI-DOX40; assay type: cell-based
Method in brief: as §1

[15] = test system: RPMI8226 myeloma cells; assay: Xenograft murine myeloma model, antitumor efficacy; assay type: in vivo, mice
Method: In vivo anti-cancer efficacy of the molecules was evaluated in a xenograft murine myeloma model. Male SCID mice (6-8 weeks old) were maintained in accordance with Institutional Animal Care Use Committee guidelines. Mice were housed in the Animal Research Facility of Ariel University and experiments were performed in accordance with approved protocols. […] Mice were sacrificed when mean tumor volume of vehicle treated group reached 1500 mm3, or mice appeared moribund to prevent unnecessary morbidity. Mean tumor volume represents the average of tumor volume in each treatment group during the experiment. The weight of the tumors was measured at the end of the experiment and expressed as mean tumor weight per group. Body weight is expressed as mean body mice weight per group. The individual relative tumor volume (RTV) was defined as Vx/V1, where Vx is the mean tumor volume in mm3 at a given time and V1 at the start of treatment. Relative tumor volume is determined by calculating RTV (%) (mean RTV of treated group)/(mean RTV of control group)). Relative tumor volume inhibition is determined by calculating RTVI (%) (1-RTV %)

[16] = test system: colchicine binding site on tubulin protein; assay: EBI competition assay, HELA cells; assay type: cell-based
[17] = test system: colchicine binding site on tubulin protein; assay: EBI competition assay, NALM6 cells; assay type: cell-based
[18] = test system: colchicine binding site on tubulin protein; assay: EBI competition assay, RPMI-8226 cells; assay type: cell-based; conditions: RPMI-8226 living cells
[19] = test system: MES-SA cells; assay: XTT cytotoxicity, MES-SA; assay type: cell-based; conditions: Homo sapiens, poorly differentiated uterine sarcoma, non-resistant
Method in brief: as §1

[20] = test system: N6/ADR cells; assay: XTT cytotoxicity, N6/ADR; assay type: cell-based
[21] = test system: RPMI-LR5 cells; assay: XTT cytotoxicity, RPMI-LR5; assay type: cell-based
Method in brief: as §1

[22] = test system: HUVEC cells; assay: HUVEC wound scratch-healing migration assay; assay type: cell-based, human
Source text: During angiogenesis, endothelial cells proliferate and migrate chemotactically towards angiogenic signals secreted by tumor cells.

[23] = test system: A2780 cells; assay: XTT cytotoxicity, A2780; assay type: cell-based; conditions: Homo sapiens; A2780, ovarian carcinoma, non-resistant
Method: as §2

[24] = test system: different cancer cell lines; assay: XTT cytotoxicity, various tumor cells; assay type: cell-based; conditions: XTT assay
Method: as §2

CCCCCOC(=O)c1[nH]c2c(c1C)C(=O)CC(c1ncco1)C2 (centres unmarked) [SMS077, pentyl 3-methyl-6-(oxazol-2-yl)-4-oxo-4,5,6,7-tetrahydro-1H-indole-2-carboxylate]
apoptosis and necrosis (annexin, propidium iodide staining) [1]: induced apoptosis and necrosis; also recorded: induces apoptosis and necrosis of treated cells | pIC50 ([2]; RPMI-MR20, mitoxantrone resistant, read-out: IC50): 7.64 | IC50 ratio between resistant and non-resistant cells ([2]; RPMI-MR20 / RPMI 8226): 0.885 | pIC50 ([3]; Homo sapiens, MES-SA/DX5, uterine sarcoma, P-gp overexpression): 7.19 | IC50 ratio between resistant and non-resistant cells ([3]; MES-SA/DX5 / MES-SA): 0.508 | pIC50 ([4]; Homo sapiens, MCF7-VP, breast adenocarcinoma, MRP overexpression): 6.25 | IC50 ratio between resistant and non-resistant cells ([4]; MCF7-VP / MCF7): 1.474 | sensitivity of resistant subline vs parental cells ([4]; MCF7-VP vs MCF7): same sensitivity | disruption of pre-formed capillary-like tube network [5]: disrupted the integrity of the network in a dose dependent manner | pIC50 [6]: 8.00 | pIC50 [7]: 6.37 | IC50 ratio between resistant and non-resistant cells ([8]; A2780ADR / A2780): 1.938 | resistance of cells to treatment ([8]; A2780ADR ovary carcinoma cells): resistant to vincristine but not to SMS077 treatment | pIC50 ([8]; A2780 ADR, A2780ADR, ovarian carcinoma, resistant): 7.51 | pIC50 [9]: 7.48 | cell cycle arrest ([10]; 6 hours, IC50, IC50x2.5 and IC50x5 concentrations): cell cycle arrest in G2M phase | subG0 phase ([10]; 18 hours of treatment): increased in subG0 phase | pIC50 [11]: 7.44 | pIC50 [12]: 6.79 | pIC50 ([13]; Homo sapiens, NCI-H69 VCR/R, vincristine resistant): 7.32 | IC50 ratio between resistant and non-resistant cells ([13]; NCI-H69 VCR/R / NCI-H69): 0.294 | resistance of cells to treatment ([13]; NCI-H69 VCR/R lung carcinoma cells): resistant to vincristine but not to SMS077 treatment | pIC50 ([14]; RPMI-DOX40, multiple myeloma, P-gp overexpression, read-out: IC50): 7.60 | IC50 ratio between resistant and non-resistant cells ([14]; RPMI-DOX40 / RPMI 8226): 0.962 | sensitivity of resistant subline vs parental cells ([14]; RPMI-Dox40 vs RPMI8226 (RPMI-S)): no difference in their sensitivity | decrease of tumor volume as compared to vehicle at the same day ([15]; day 8, intraperitoneally): 0% | decrease of tumor volume as compared to vehicle at the same day ([15]; day 11, intraperitoneally): 40% | decrease of tumor volume as compared to vehicle at the same day ([15]; day 25, intraperitoneally): 52% | growth inhibition rate (tumor weight at end of experiment) ([15]; intraperitoneally): 54% | binding to the colchicine binding site [16]: bound to the colchicine binding site | binding to the colchicine binding site [17]: bound to the colchicine binding site | prevention of covalent binding of EBI to the colchicine binding site [18]: prevented the covalent binding of EBI to the colchicine binding site | pIC50 [19]: 6.89 | IC50 ratio between resistant and non-resistant cells ([20]; N6/ADR / NALM6): 0.895 | pIC50 ([20]; N6/ADR, acute lymphoblastic leukemia, P-gp overexpression, read-out: IC50): 7.77 | pIC50 ([21]; RPMI-LR5, multiple myeloma, melphalan resistant, read-out: IC50): 7.72 | IC50 ratio between resistant and non-resistant cells ([21]; RPMI-LR5 / RPMI 8226): 0.731 | sensitivity of resistant subline vs parental cells ([21]; RPMI-LR5 vs RPMI8226 (RPMI-S)): no difference in their sensitivity | wound healing density (HUVEC migration) [22]: decreased wound healing density in a dose and time dependent manner | pIC50 [23]: 7.80 | cytotoxic activity [24]: very potent cytotoxic activity against different cancer cell lines at low nanomolar levels
